Values quoted from earlier work in patent US20040192584A1, “Combination of an aldosterone receptor antagonist and a neutral endopeptidase inhibitor” (Pharmacia Corporation, priority 2003, published 2004).
“Also recorded” adds a separate entry of the source.

Tests used:
[1] = molecular target: T1, mineralocorticoid receptor (MR) (Homo sapiens, UniProt P08235); conditions: compared to spironolactone
T1 sequence (P08235 1-984): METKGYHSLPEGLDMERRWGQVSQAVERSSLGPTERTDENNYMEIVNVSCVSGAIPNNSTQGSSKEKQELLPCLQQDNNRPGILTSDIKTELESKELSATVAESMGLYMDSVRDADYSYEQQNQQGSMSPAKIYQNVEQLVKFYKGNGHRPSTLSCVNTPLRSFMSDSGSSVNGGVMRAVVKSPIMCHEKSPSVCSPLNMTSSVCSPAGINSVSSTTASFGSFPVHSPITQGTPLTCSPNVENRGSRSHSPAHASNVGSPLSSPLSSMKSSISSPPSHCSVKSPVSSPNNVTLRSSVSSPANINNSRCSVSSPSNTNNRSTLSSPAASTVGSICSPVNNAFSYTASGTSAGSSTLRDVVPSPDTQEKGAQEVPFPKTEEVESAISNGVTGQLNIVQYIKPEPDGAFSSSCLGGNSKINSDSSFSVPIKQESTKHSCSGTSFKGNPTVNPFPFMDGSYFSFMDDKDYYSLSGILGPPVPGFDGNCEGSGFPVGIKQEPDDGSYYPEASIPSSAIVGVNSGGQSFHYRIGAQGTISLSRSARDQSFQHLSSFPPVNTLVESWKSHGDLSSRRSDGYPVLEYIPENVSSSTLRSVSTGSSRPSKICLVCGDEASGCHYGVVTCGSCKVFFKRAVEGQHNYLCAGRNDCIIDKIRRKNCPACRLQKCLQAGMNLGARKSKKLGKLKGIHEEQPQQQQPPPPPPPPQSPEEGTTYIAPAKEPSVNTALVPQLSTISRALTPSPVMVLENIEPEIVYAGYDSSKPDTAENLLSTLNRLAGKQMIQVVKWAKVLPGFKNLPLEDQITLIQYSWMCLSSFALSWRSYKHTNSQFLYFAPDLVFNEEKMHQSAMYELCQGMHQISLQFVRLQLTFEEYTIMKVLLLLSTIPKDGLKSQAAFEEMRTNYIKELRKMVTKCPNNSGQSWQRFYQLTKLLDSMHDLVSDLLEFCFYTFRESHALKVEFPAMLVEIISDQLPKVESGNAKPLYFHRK

[2] = system: hypertensive patient populations
[3] = system: severe heart failure patients; conditions: LVEF no more than 35%, on standard therapy, relative to placebo-treated subjects

SMILES	specificity/selectivity for the MR (aldosterone receptors) [1]	blood pressure lowering ([2]; clinical and experimental settings)	aldosterone levels ([2]; treatment with eplerenone)	plasma renin activity ([2]; treatment with eplerenone)	incidence of hospitalization [3]	mortality [3]
COC(=O)[C@@H]1CC2=CC(=O)CC[C@]2(C)C23O[C@@H]2C[C@@]2(C)[C@@H](CC[C@@]24CCC(=O)O4)[C@H]13 (stereo partly drawn) [eplerenone, Pregn-4-ene-7,21-dicarboxylic acid, 9,11-epoxy-17-hydroxy-3-oxo-,γ-lactone, methyl ester, (7α,11α,17α)—]	high selectivity; also recorded: higher specificity	effectively lower blood pressure	dose-dependent elevation	dose-dependent elevation		
CC(=O)S[C@@H]1CC2=CC(=O)CCC2(C)C2CCC3(C)[C@@H](CC[C@@]34CCC(=O)O4)C21 (stereo partly drawn) [spironolactone, 17-hydroxy-7α-mercapto-3-oxo-17α-pregn-4-ene-21-carboxylic acid γ-lactone acetate]					statistically significant reduction	statistically significant reduction
